Laboratory results reported in patent US20220281865A1, “DIHYDROPYRIMIDINE DERIVATIVES AND USES THEREOF IN THE TREATMENT OF HBV INFECTION OR OF HBV-INDUCED DISEASES” (Janssen Sciences Ireland Unlimited Company, priority 2019, published 2022).

Tests used:
HBV = assay: Anti-HBV activity in HepG2.2.15 cells (HBV DNA in culture medium by qPCR); type: cell-based; conditions: Hepatitis B virus, 144 h, 6 days treatment
Method: (§1) HepG2.2.15 (the HepG2.2.15 cell line can be produced by transfection of the HepG2 cell line as described in Sells, Chen, and Acs 1987 (Proc. Natl. Acad. Sci. USA 84: 1005-1009), and the HepG2 cell line is available from ATCC® under number HB-8065™)
(§2) HepG2.2.15 cells were plated into 96-well plate in 2% FBS culture medium at the density of 40,000 cells/well and 5,000 cells/well for HBV inhibitory activity and cytotoxicity determination, respectively. After incubation at 37° C., 5% CO2 overnight, cells were treated with medium containing compounds for 6 days with medium and compounds refreshed after 3 days of treatment. Each compound was tested in a 1:3 serial dilutions at 8 different concentrations in triplicate. The highest concentration of the compounds was 10 uM or 1 uM for anti-HBV activity assay and 100 uM for cytotoxicity determination.
The change of HBV DNA level induced by the compounds was assessed by quantitative real-time polymerase chain reaction (qPCR). Briefly, the HBV DNA in the culture medium was extracted using QIAamp 96 DNA Blood Kit according to the manual and then quantified by real-time PCR assay using the primers and probe in the table 1 below.
(§3) EC50 and CC50 values are calculated by the GRAPHPAD PRISM software.

[1] = Cytotoxicity determination in HepG2.2.15 cells (CCK-8 cell viability); type: cell-based; conditions: human, 6 days treatment, CCK-8 assay
Method: as §1, §2
Cell viability was determined by CCK-8 assay. After 6 days of compounds treatment, 20 μl CCK-8 reagents were added to each well of cytotoxicity assay plates. Cell plates were incubated at 37° C., 5% CO2 for 2.5 h. The absorbance at 450 nm wavelength and the absorbance at 630 nm wavelength as reference was measured.
as §3

CCOC(=O)C1=C(CN2CC(F)(F)[C@H]3CCN(CC(C)(C)C(=O)O)C(=O)[C@H]32)NC(c2nccs2)=N[C@H]1c1cccc(F)c1C (single isomer, unassigned) [Compound I-1, 3-((3aS*,7aS*)-1-(((S)-5-(ethoxycarbonyl)-6-(3-fluoro-2-methylphenyl)-2-(thiazol-2-yl)-3,6-dihydropyrimidin-4-yl)methyl)-3,3-difluoro-7-oxohexahydro-1H-pyrrolo[2,3-c]pyridin-6(2H)-yl)-2,2-dimethylpropanoic acid]
EC50 (HBV): 0.06 µM | CC50 at 6 days [1]: 32 µM

CCOC(=O)C1=C(CN2CC(F)(F)[C@H]3CC(=O)N(CC(C)(C)C(=O)O)C[C@H]32)NC(c2nccs2)=N[C@H]1c1cccc(F)c1C (single isomer, unassigned) [Compound I-2, 3-((3aS*,7aS*)-1-(((S)-5-(ethoxycarbonyl)-6-(3-fluoro-2-methylphenyl)-2-(thiazol-2-yl)-3,6-dihydropyrimidin-4-yl)methyl)-3,3-difluoro-5-oxohexahydro-1H-pyrrolo[2,3-c]pyridin-6(2H)-yl)-2,2-dimethylpropanoic acid]
EC50 (HBV): 0.034 µM | CC50 at 6 days [1]: 50.4 µM

CCOC(=O)C1=C(CN2CC(F)(F)[C@H]3CCN(C(=O)C(C)(C)C(=O)O)C[C@H]32)NC(c2nccs2)=N[C@H]1c1cccc(F)c1C (single isomer, unassigned) [Compound I-3, 3-((3aS*,7aS*)-1-(((S)-5-(ethoxycarbonyl)-6-(3-fluoro-2-methylphenyl)-2-(thiazol-2-yl)-3,6-dihydropyrimidin-4-yl)methyl)-3,3-difluorohexahydro-1H-pyrrolo[2,3-c]pyridin-6(2H)-yl)-2,2-dimethyl-3-oxopropanoic acid]
EC50 (HBV): 0.21 µM | CC50 at 6 days [1]: 30 µM

CCOC(=O)C1=C(CN2CC(F)(F)[C@H]3C(=O)N(CC(C)(C)C(=O)O)CC[C@H]32)NC(c2nccs2)=N[C@H]1c1cccc(F)c1C (single isomer, unassigned) [Compound I-5, 3-((3aR*,7aR*)-1-(((S)-5-(ethoxycarbonyl)-6-(3-fluoro-2-methylphenyl)-2-(thiazol-2-yl)-3,6-dihydropyrimidin-4-yl)methyl)-3,3-difluoro-4-oxohexahydro-1H-pyrrolo[3,2-c]pyridin-5(6H)-yl)-2,2-dimethylpropanoic acid]
EC50 (HBV): 0.048 µM | CC50 at 6 days [1]: 47.1 µM

CCOC(=O)C1=C(CN2CC(F)(F)[C@H]3CN(CC(C)(C)C(=O)O)CC[C@H]32)NC(c2nccs2)=N[C@H]1c1cccc(F)c1C (single isomer, unassigned) [Compound I-6, 3-((3aS*,7aR*)-1-(((S)-5-(ethoxycarbonyl)-6-(3-fluoro-2-methylphenyl)-2-(thiazol-2-yl)-3,6-dihydropyrimidin-4-yl)methyl)-3,3-difluorohexahydro-1H-pyrrolo[3,2-c]pyridin-5(6H)-yl)-2,2-dimethylpropanoic acid]
EC50 (HBV): 0.081 µM | CC50 at 6 days [1]: 43.4 µM

CCOC(=O)C1=C(CN2CC(F)(F)[C@H]3CN(C(=O)C(C)(C)C(=O)O)CC[C@H]32)NC(c2nccs2)=N[C@H]1c1cccc(F)c1C [Compound I-4, 3-((cis)-1-(((S)-5-(ethoxycarbonyl)-6-(3-fluoro-2-methylphenyl)-2-(thiazol-2-yl)-3,6-dihydropyrimidin-4-yl)methyl)-3,3-difluorohexahydro-1H-pyrrolo[3,2-c]pyridin-5(6H)-yl)-2,2-dimethyl-3-oxopropanoic acid]
EC50 (HBV): 0.081 µM | CC50 at 6 days [1]: 34.4 µM
